Assay results as given in ChEMBL document CHEMBL5523682, “The formyl peptide receptors FPR1 and FPR2 as targets for inflammatory disorders: recent advances in the development of small-molecule agonists” (Eur J Med Chem, 2024).
pEC50: −log10 of the molar value.

Key:
[1] = biological target: T1, N-formyl peptide receptor 2 (Homo sapiens, UniProt P25090); assay: Agonist activity at FPR2 (unknown origin) in HEK293 cells; type: functional, cell-based
T1 sequence (P25090 whole entry): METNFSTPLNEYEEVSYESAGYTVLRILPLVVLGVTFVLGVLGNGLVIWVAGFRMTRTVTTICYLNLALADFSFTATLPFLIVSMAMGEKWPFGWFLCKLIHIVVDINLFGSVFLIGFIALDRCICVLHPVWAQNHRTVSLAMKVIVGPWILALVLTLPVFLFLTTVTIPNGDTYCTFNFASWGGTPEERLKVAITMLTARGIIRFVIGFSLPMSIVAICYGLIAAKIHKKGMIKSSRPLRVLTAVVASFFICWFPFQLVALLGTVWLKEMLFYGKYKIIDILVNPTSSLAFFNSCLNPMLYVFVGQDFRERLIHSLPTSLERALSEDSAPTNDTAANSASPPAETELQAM

fMet-Leu-Phe receptor [2] = biological target: T2, fMet-Leu-Phe receptor (Homo sapiens, UniProt P21462); assay: Agonist activity at FPR1 (unknown origin) in HEK293 cells; type: functional, cell-based
T2 sequence (P21462 whole entry): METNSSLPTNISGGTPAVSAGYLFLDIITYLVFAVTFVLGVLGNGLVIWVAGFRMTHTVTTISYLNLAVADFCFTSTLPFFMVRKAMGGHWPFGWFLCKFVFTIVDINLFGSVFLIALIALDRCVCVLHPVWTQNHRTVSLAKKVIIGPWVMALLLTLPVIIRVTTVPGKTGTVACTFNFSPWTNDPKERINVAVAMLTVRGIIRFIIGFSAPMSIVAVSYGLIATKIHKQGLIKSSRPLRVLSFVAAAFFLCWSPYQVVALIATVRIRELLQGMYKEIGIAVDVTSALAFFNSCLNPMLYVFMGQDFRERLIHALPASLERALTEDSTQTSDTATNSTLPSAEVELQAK

Homo sapiens = species on record: Homo sapiens; assay: Selectivity ratio of EC50 for agonist activity at human FPR1 transfected in CHO cells to EC50 for agonist activity at human FPR2 transfected in CHO cells; type: cell-based
[3] = biological target: T1, N-formyl peptide receptor 2; assay: Agonist activity at FPR2 (unknown origin) expressed in CHO cells by cAMP assay; type: functional, cell-based
fMet-Leu-Phe receptor [4] = biological target: T2, fMet-Leu-Phe receptor; assay: Agonist activity at human FPR1 expressed in HL-60 cells assessed as increase in calcium mobilization by FLIPR analysis; type: functional, cell-based
[5] = biological target: T1, N-formyl peptide receptor 2; assay: Agonist activity at human FPR2; type: functional
[6] = biological target: T3, Formyl peptide receptor 2 (Mus musculus, UniProt O88536); assay: Agonist activity at mouse FPR2
T3 sequence (O88536 whole entry): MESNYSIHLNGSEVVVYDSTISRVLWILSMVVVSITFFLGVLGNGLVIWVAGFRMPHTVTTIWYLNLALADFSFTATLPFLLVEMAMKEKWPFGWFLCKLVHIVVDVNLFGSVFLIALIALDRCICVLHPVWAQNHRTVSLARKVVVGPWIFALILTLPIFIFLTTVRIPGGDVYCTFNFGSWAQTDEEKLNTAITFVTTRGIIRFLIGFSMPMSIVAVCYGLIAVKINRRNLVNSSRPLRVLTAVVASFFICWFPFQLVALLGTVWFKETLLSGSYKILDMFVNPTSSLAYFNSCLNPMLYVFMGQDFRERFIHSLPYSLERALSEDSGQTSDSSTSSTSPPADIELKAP

[7] = biological target: T1, N-formyl peptide receptor 2; assay: Agonist activity at human FPR2 expressed in HL-60 cells assessed as increase in calcium mobilization by FLIPR analysis; type: functional, cell-based
[8] = biological target: T1, N-formyl peptide receptor 2; assay: Agonist activity at FPR2 (unknown origin) transfected in CHO cells by cAMP assay; type: functional, cell-based
fMet-Leu-Phe receptor [9] = biological target: T2, fMet-Leu-Phe receptor; assay: Agonist activity at human FPR1 transfected in CHO cells by cAMP assay; type: functional, cell-based
fMet-Leu-Phe receptor [10] = biological target: T4, fMet-Leu-Phe receptor (Mus musculus, UniProt P33766); assay: Agonist activity at mouse FPR1; type: functional
T4 sequence (P33766 whole entry): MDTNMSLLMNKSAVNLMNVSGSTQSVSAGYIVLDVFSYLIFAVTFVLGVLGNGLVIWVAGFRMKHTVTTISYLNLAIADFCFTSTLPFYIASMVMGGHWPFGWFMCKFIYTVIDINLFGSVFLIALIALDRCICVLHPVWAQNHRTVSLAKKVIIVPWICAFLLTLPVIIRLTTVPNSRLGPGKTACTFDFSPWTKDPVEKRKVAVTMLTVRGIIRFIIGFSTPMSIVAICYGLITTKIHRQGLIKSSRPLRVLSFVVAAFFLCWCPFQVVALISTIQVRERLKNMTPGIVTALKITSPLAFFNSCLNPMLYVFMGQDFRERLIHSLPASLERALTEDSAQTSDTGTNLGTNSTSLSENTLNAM

## COc1ccc(-n2c(-c3ccccc3)cnc2NC(=O)c2ccc(OC(F)F)cc2)cc1
[1]
  pEC50: 8.52
fMet-Leu-Phe receptor [2]
  pEC50: 7.42

## O=C(CN1CCN(c2ccc(Cl)cc2)CC1)Nc1ccc(Br)cc1
[1]
  pEC50: 5.68

## CS(=N)(=O)c1ccccc1-c1ccc(N2CC[C@@H](NC(=O)Nc3ccc(Cl)cc3F)C2=O)c(F)c1F (stereo partly drawn)
Homo sapiens
  Ratio EC50: 82

## COc1ccc(NC(=O)N[C@@H]2CCCN(c3ccc(-c4ccccc4C(N)=O)cc3)C2=O)cc1
[3]
  pEC50: 8.30

## COc1cc(F)c(-c2c(NC(=O)c3ccc(OC(F)F)cc3)c(=O)n(-c3ccccc3)n2C)c(F)c1
Homo sapiens
  Ratio EC50: 200

## COc1ccc(C2(CNC(=O)[C@@H](Cc3c[nH]c4ccccc34)NC(=O)Nc3ccc([N+](=O)[O-])cc3)CCCCC2)nc1
fMet-Leu-Phe receptor [4]
  pEC50: 7.64

## Cc1ccc(C2(NC(=O)[C@@H]3C4CCC([C@H]3C(=O)NCCCCN3CCCC3)C43CC3)CC2)cc1 (stereo partly drawn)
[1]
  pEC50: 8.40

## COc1ccc(C2(CNC(=O)[C@H](Cc3c[nH]c4ccccc34)NC(=O)Nc3ccc([N+](=O)[O-])cc3)CCCCC2)nc1
fMet-Leu-Phe receptor [4]
  pEC50: 5.39

## CC/C=C\C[C@@H](O)/C=C/C=C\C[C@@H](O)/C=C/C=C/C=C\[C@@H](O)CCC(=O)O
[5]
  pEC50: 8.92

## CSc1ccc(NC(=O)Nc2ccc3c(c2)C(=O)N(CCCN)C(C)C3)cc1 (stereo not drawn)
[6]
  pEC50: 7.82

## C[C@H]1CC(c2ccccc2)=NN(CC(=O)Nc2ccc(Br)cc2)C1=O
[7]
  pEC50: 4.96
fMet-Leu-Phe receptor [4]
  pEC50: 4.70

## COc1ccc([C@H]2CN(Cc3cnn(S(C)(=O)=O)c3)CC[C@@H]2NC(=O)Nc2ccc(Cl)cc2)cc1 (racemic)
[3]
  pEC50: 10.05

## Cc1ccc(NC(=O)N[C@H]2CCCN(c3ccc(-c4ccccc4C(N)=O)cc3)C2=O)cc1
[3]
  pEC50: 7.40

## COc1ccc([C@@H]2COC(=O)[C@@H]2NC(=O)Nc2ccc(Cl)cc2)cc1 (racemic)
[3]
  pEC50: 9.60

## O=C(CN1C(=O)C2C(C1=O)C1CCC2C12CC2)Nc1ccc(Br)cc1 (stereo not drawn)
[8]
  pEC50: 6.92

## COc1cc(F)c(-c2c(NC(=O)c3ccc(OC(F)F)cc3)c(=O)n(-c3ccccn3)n2C)c(F)c1
Homo sapiens
  Ratio EC50: > 630
fMet-Leu-Phe receptor [9]
  pEC50: < 8.00

## COc1ccc(NC(=O)CSc2nc3cc(OC)ccc3[nH]2)cc1
[1]
  pEC50: 7.82
fMet-Leu-Phe receptor [2]
  pEC50: 5.43

## N#Cc1ccccc1-c1ccc(N2CC[C@@H](NC(=O)Nc3ccc(Cl)cc3F)C2=O)c(F)c1F
Homo sapiens
  Ratio EC50: 14

## COC(=O)c1cccc(-n2c(=O)c(NC(=O)c3ccc(OC(F)F)cc3)c(-c3c(F)cc(OC)cc3F)n2C)c1
Homo sapiens
  Ratio EC50: 1

## NC(=O)c1ccccc1-c1ccc(N2CCC[C@H](NC(=O)Nc3ccc(Cl)cc3)C2=O)cc1
[3]
  pEC50: 8.30

## COc1cc(OC)cc(-n2c(=O)c(NC(=O)c3ccc(OC(F)F)cc3)c(-c3c(F)cc(OC)cc3F)n2C)c1
Homo sapiens
  Ratio EC50: 3400
fMet-Leu-Phe receptor [9]
  pEC50: 8.00

## CC(C)c1c(NC(=O)Nc2ccc(Cl)cc2)c(=O)n(-c2ccccc2)n1C
[6]
  pEC50: 6.05
fMet-Leu-Phe receptor [10]
  pEC50: 6.46

## COc1cccc(-n2c(=O)c(NC(=O)c3ccc(OC(F)F)cc3)c(-c3c(F)cc(OC)cc3F)n2C)c1
Homo sapiens
  Ratio EC50: 0.6

## COc1ccc(C2(CNC(=O)[C@](C)(Cc3c[nH]c4ccccc34)NC(=O)Nc3ccc([N+](=O)[O-])cc3)CCCCC2)nc1
fMet-Leu-Phe receptor [4]
  pEC50: 6.52

## COc1ccc([C@@H]2CN(CCO)C(=O)[C@H]2NC(=O)Nc2ccc(Cl)cc2)cc1
[3]
  pEC50: 11.00

## CCCc1cn(-c2cccc(OC)c2)c(=O)n(CC(=O)Nc2ccc(Br)cc2)c1=O
[7]
  pEC50: 5.62
fMet-Leu-Phe receptor [4]
  pEC50: 5.48

## COc1cc(F)c(-n2c(C3CC(N)C3)cnc2NC(=O)c2ccc(OC(F)F)cc2)c(F)c1 (stereo not drawn)
[1]; hek293
  pEC50: 8.40
fMet-Leu-Phe receptor [2]; hek293
  pEC50: 5.27

## COc1cc(F)c(-n2c(-c3ccccc3)cnc2NC(=O)c2ccc(OC(F)F)cc2)c(F)c1
[1]
  pEC50: 8.40
fMet-Leu-Phe receptor [2]
  pEC50: 6.70

## O=C(Nc1ccc(Br)nc1)[C@@H]1C2CCC([C@H]1C(=O)OCCC1CCNCC1)C21CC1 (stereo partly drawn)
[1]
  pEC50: 9.40

## O=C(O)[C@@H]1C2CCC([C@@H]1C(=O)Nc1ccc(Br)cc1)C21CC1 (stereo partly drawn)
[6]
  pEC50: 6.55

## CCC(Nc1ccc(OC)cc1)C(=O)N/N=C(C)/C=C/c1ccccc1 (stereo not drawn)
[1]
  pEC50: 5.59

## COc1cccc(-c2cc(C#N)c(=O)n(CC(=O)Nc3ccc(Br)cc3)c2C)c1
[7]; hl-60
  pEC50: 6.92
fMet-Leu-Phe receptor [4]; hl-60
  pEC50: 5.80

## CC(=O)CCCCc1nc(NC(=O)OCc2ccccc2C)co1
[1]
  pEC50: 9.52

## COC(=O)c1ccc(NC(=O)CSc2nc3cc(OC)ccc3[nH]2)cc1
fMet-Leu-Phe receptor [2]
  pEC50: 5.33

## COc1cc(-n2c(=O)c(NC(=O)c3ccc(OC(F)F)cc3)c(-c3c(F)cc(OC)cc3F)n2C)cc(C(F)(F)F)c1
Homo sapiens
  Ratio EC50: > 1300
fMet-Leu-Phe receptor [9]
  pEC50: < 8.00

## COc1cccc(-c2csc(=O)n2CC(=O)Nc2ccc(Br)cc2)c1
[7]; hl-60
  pEC50: 6.64
fMet-Leu-Phe receptor [4]; hl-60
  pEC50: 6.55

## CP(C)(=O)c1ccccc1-c1ccc(N2CC[C@@H](NC(=O)Nc3ccc(Cl)cc3F)C2=O)c(F)c1F
Homo sapiens
  Ratio EC50: 490

## COc1cc(C2CCNCC2)nc(-n2c(=O)c(NC(=O)c3ccc(OC(F)F)cc3)c(-c3c(F)cc(OC)cc3F)n2C)c1
fMet-Leu-Phe receptor [9]
  pEC50: < 5.00

## CSCC[C@H](NC=O)C(=O)N[C@@H](CC(C)C)C(=O)N[C@@H](Cc1ccccc1)C(=O)O
fMet-Leu-Phe receptor [10]
  pEC50: 4.64

## CCOC(=O)[C@H]1C2CCC([C@H]1C(=O)Nc1ccc(Br)cc1)C21CC1 (stereo partly drawn)
[8]
  pEC50: 5.85

## COc1cc(F)c(-c2c(NC(=O)c3ccc(OC(F)F)cc3)c(=O)n(-c3cccc(OC(F)F)c3)n2C)c(F)c1
Homo sapiens
  Ratio EC50: 1

## COc1ccc(CC(Cc2ccc3c(c2)OCO3)NC(=O)Nc2ccc(Cl)cc2)cc1 (stereo not drawn)
fMet-Leu-Phe receptor [4]
  pEC50: 6.96

## CS(=O)(=O)Nc1ccccc1-c1ccc(N2CC[C@@H](NC(=O)Nc3ccc(Cl)cc3F)C2=O)c(F)c1F
Homo sapiens
  Ratio EC50: 340

## O=C(NCCCCN1CCCCC1)[C@@H]1C2CCC([C@H]1C(=O)Nc1ccc(Br)cc1)C21CC1 (stereo partly drawn)
[1]
  pEC50: 10.15

## CS(=O)(=O)c1ccccc1-c1ccc(N2CC[C@@H](NC(=O)Nc3ccc(Cl)cc3F)C2=O)c(F)c1F
Homo sapiens
  Ratio EC50: 66

## C[C@@H]1CC(c2ccccc2)=NN(CC(=O)Nc2ccc(Br)cc2)C1=O
[7]
  pEC50: 5.00
fMet-Leu-Phe receptor [4]
  pEC50: 4.62

## CCP(=O)(CC)c1ccccc1-c1ccc(N2CC[C@@H](NC(=O)Nc3ccc(Cl)cc3F)C2=O)c(F)c1F
Homo sapiens
  Ratio EC50: 350

## Cc1ccc(NC(=O)N[C@@H]2CCCN(c3ccc(-c4ccccc4C(N)=O)cc3)C2=O)cc1
[3]
  pEC50: > 8.30

## O=C(Nc1ccc(Cl)cc1F)N[C@@H]1CCN(c2ccc(-c3ccccc3F)c(F)c2F)C1=O
Homo sapiens
  Ratio EC50: 12

## COc1cc(F)c(-c2c(NC(=O)c3ccc(OC(F)F)cc3)c(=O)n(-c3cccc(-n4ccc(C)n4)n3)n2C)c(F)c1
Homo sapiens
  Ratio EC50: 1
